# From ChEMBL document CHEMBL4138293, “Modified Abietane Diterpenoids from Whole Plants of Selaginella moellendorffii” (J Nat Prod, 2018)
# Calls of active or inactive are those of the source. No cut-off for these calls is given here.
# Columns and labels:
# Type in all cases: functional, cell-based
# MCF7 = test: Growth inhibition of human MCF7 cells after 48 hrs by MTS assay
# SMMC-7721 = test: Growth inhibition of human SMMC7721 cells after 48 hrs by MTS assay
# SW480 = test: Growth inhibition of human SW480 cells after 48 hrs by MTS assay
# A549 = test: Growth inhibition of human A549 cells after 48 hrs by MTS assay
# HL-60 = test: Growth inhibition of human HL60 cells after 48 hrs by MTS assay
"IC50 (MCF7; MCF7, 48 h) [nM]","IC50 (SMMC-7721; SMMC-7721, 48 h) [nM]","IC50 (SW480; SW480, 48 h) [nM]","IC50 (HL-60; HL-60, 48 h) [nM]",Compound,growth inhibition (GI) (MCF7),growth inhibition (GI) (SMMC-7721),growth inhibition (GI) (SW480),growth inhibition (GI) (A549),growth inhibition (GI) (HL-60)
–,–,–,–,C=C1[C@@H]2CC(=O)c3cc(C(C)C)c(O)cc3[C@@]2(C)CC(=O)[C@]12CCC1=C(C2)C2=CC(=O)c3cc(C(C)C)c(O)cc3[C@@]2(C)C[C@@H]1O,inactive,inactive,inactive,inactive,inactive
9000,–,–,–,C=C1[C@@H]2CC(=O)c3cc(C(C)C)c(O)cc3[C@@]2(C)CC(=O)[C@]12CCC1=C(C2)[C@@H]2CC(=O)c3cc(C(C)C)c(O)cc3[C@@]2(C)C[C@@H]1O,–,inactive,inactive,inactive,inactive
–,–,–,–,CC(C)c1cc2c(cc1O)[C@@]1(C)CC[C@](C)(O)[C@@](O)(CO)[C@@H]1CC2=O,inactive,inactive,inactive,inactive,inactive
–,< 8,< 8,< 8,CC(=O)O[C@H]1C(=O)[C@@]2(C)[C@H]([C@H](OC(=O)c3ccccc3)[C@]3(O)C[C@H](OC(=O)[C@H](O)[C@@H](NC(=O)c4ccccc4)c4ccccc4)C(C)=C1C3(C)C)[C@]1(OC(C)=O)CO[C@@H]1C[C@@H]2O [PACLITAXEL],–,–,–,–,–
